Experimental data reported in patent publication US4469705A, “Saturated leukotriene derivatives as antiallergens” (McNeilab, Inc., priority 1982, dated 1984).

Columns and labels:
[1] = test system: contraction of guinea pig parenchymal tissue by immunological release of SRS-A; test: Guinea pig parenchymal strip: inhibition of contraction by immunological release of SRS-A (isolated tissue); assay type: cell-based; conditions: Cavia porcellus; egg albumin challenge of sensitized tissue; chlorpheniramine (10^-5 M), indomethacin (10^-4 M); test compound 30 min before challenge
Experimental: (b) Guinea Pig Parenchymal Strip
The guinea pigs were sacrificed and lungs removed. Strips of subpleural parenchyma were prepared from the left and right diaphragmatic lobes and suspended in a tissue bath under 1 gram of tension. After a one hour equilibration period, a dose response to histamine (10^-7 to 10^-4 M) induced contractions was performed to determine maximal contraction. The tissues were then washed and allowed to relax to baseline. Chlorpheniramine (10^-5 M), indomethacin (10^-4 M) and test compound were added 30 minutes prior to challenge with egg albumin. The response to antigen was measured in milligrams of tension.

[2] = test system: SRS-A induced contraction of guinea pig ileum; test: Guinea pig ileum: inhibition of SRS-A induced contraction (isolated tissue); assay type: cell-based; conditions: Cavia porcellus, atropine and chlorpheniramine (1×10^-5 M) present, test drug 5 min before SRS-A, read-out: G.P. Ileum IC50
Experimental: The tissue is exposed to […] histamine at 1-3 minute intervals until a reproducible response is obtained. Atropine (1×10^-5 M) and chloropheniramine (1×10^-5 M) are added followed by 1-2 biological units of SRS-A. After washing the tissue, the response to BaCl2 (1×10^-3 M) was also noted.

Row | Structure (SMILES) | IC50 [1] | IC50 [2]
1 | CCCCCCCCCCC[C@@H](SCCC(=O)OC)[C@@H](O)CCCCC(=O)OC (relative stereo) [Example 4, Erythro Methyl 6-Hydroxy-7-{[2-(methoxycarbonyl)ethyl]thio}octadecanoate] | 1.1 µM | –
2 | CCCCCCCCCCCC(SC[C@H](N)C(=O)OC)C(O)CCCCC(=O)OC (stereo partly drawn) [Example 3, Threo S-(5-Hydroxy-1-methoxycarbonyl-6-heptadecyl)-L-cysteine Methyl Ester] | > 100 µM | 14 µM
3 | CCCCCCCCCCC[C@@H](SCCC(=O)OC)[C@H](O)CCCCC(=O)OC (relative stereo) [Example 1, Threo Methyl 6-Hydroxy-7{[2-(methoxycarbonyl)ethyl]thio}octadecanoate] | > 100 µM | 1 µM
4 | CCCCCCCCCCC[C@@H](SCCC(=O)O)[C@H](O)CCCCC(=O)O (relative stereo) [Example 2, Threo 7-(2-Carboxyethyl)thio-6-hydroxyoctadecanoic Acid] | 100 µM | 9 µM
5 | CCCCCCCCCCC[C@@H](SCCC(=O)O)[C@@H](O)CCCCC(=O)O (relative stereo) [Example 5, Erythro 7-(2-Carboxyethyl)thio-6-hydroxyoctadecanoic Acid] | 3.6 µM | 0.08 µM
